Measured values: patent publication US20140024700A1, “BLOOD-BORNE MIRNAS AS SURROGATE MARKERS OF DRUG EFFICACY FOR CARDIAC CONDITIONS” (miRagen Therapeutics, Inc., priority 2010, published 2014)

Columns and labels:
[1] = tested on: miR-208a, miR-499, miR-208b, Myh6, Myh7b, Myh7, Dynlt1, Vcpip, Tegt; assay: Cardiac tissue real-time PCR, 6% NaCl diet (Example 3); type: in vivo, rat; conditions: M-10101 25 mg/kg sc, Captopril po daily
Procedure: (§1) One week following the initiation of the 6.0% NaCl diet, rats were dosed subcutaneously (sc) with saline or oligonucleotides (M−10101, 5′-CTTTTTGCTCGTCTTA-3′ (SEQ ID NO: 12) or M-10591, 5′-TCCTAGAAAGAGTAGA-3′ (SEQ ID NO:13)) at 25 mg/kg every 2 weeks. Captopril or water were dosed daily by oral gavage. Echocardiography was performed every 2 weeks starting one week post […] dosing. The Captopril dose for rat was selected to match the standard human dose in man.
For in vivo real-time PCR analysis, RNA was extracted from cardiac tissue using Trizol (Invitrogen) after which two μg RNA from each tissue sample was used to generate cDNA using Super Script II reverse transcriptase per manufacturer's specifications (Invitrogen). To detect the level of miR-208 RT-PCR was performed using the Taqman MicroRNA assay (Applied Biosystems, ABI) according the manufacturer's recommendations, using 10-100 ng of total RNA. The expression of a subset of genes was analyzed by quantitative real time PCR using Taqman probes purchased from AB.

[2] = tested on: plasma miRNAs; assay: Real-time PCR of plasma miRNAs, 6% NaCl diet (Example 3); type: in vivo, rat
Procedure: as §1
Quantitative real-time PCR analysis from plasma. RNA from plasma samples was isolated using Trizol LS Reagent (Invitrogen), using the manufacturer's protocol. Prior to RNA isolation, […] of two different synthetic C. elegans miRNA sequences were added to serve as internal controls for normalization of target miRNAs. The C. elegans sequences used were cel-miR-2 ([…], SEQ ID NO:5), and cel-lin-4 ([…]; SEQ ID NO:6) (Dharmacon). The final RNA pellet was re-suspended in a final volume equal to the initial plasma volume and 5 μl was used for subsequent RT-PCR reactions, as described above.

[3] = tested on: Dahl salt-sensitive rats; assay: Dahl salt-sensitive rat model, 6% NaCl diet: body weight and survival (Example 3); type: in vivo
[4] = tested on: miR-208a, Myh6, Myh7; assay: Cardiac tissue markers by Taqman RT-PCR, 4% NaCl diet (Example 2); type: in vivo, rat; conditions: 25 mg/kg sc every 2 weeks; for Myh6 expression in cardiac tissue: 25 mg/kg
Procedure: The flowing experimental groups were tested:
Following catheter implant surgery, high-salt diet was initiated. […] Animals were sacrificed 8 weeks after the initial injection.
Tissue RNA was isolated using standard Trizol RNA isolation.

Compound | Myh7b levels in the heart [1] | αMHC (Myh6) in the heart (reduced by HS diet) [1] | βMHC (Myh7) expression (increase induced by HS diet) [1] | Plasma miR-21 [2] | Plasma miR-150 [2] | Plasma miR-223 [2] | Plasma miR-423-5p, miR-106b, miR-16, miR-92a, miR-378, miR-210, miR-378*, miR-20b and miR-93 [2] | Survival (Kaplan-Meier) ([3]; 1.5 mg/kg Captopril po daily) | Body weight ([3]; 15 mg/kg Captopril po daily) | Myh7 expression in cardiac tissue [4] | Myh6 expression in cardiac tissue [4] | Myh6 expression in cardiac tissue ([4]; listed as control oligonucleotide) | Body weight ([3]; oligonucleotide 25 mg/kg sc every 2 weeks)
C[C@H](CS)C(=O)N1CCC[C@H]1C(=O)O [Captopril, reference compound] | no apparent effect | normalized | reduced the increase | reduced specifically | reduced specifically | significantly reduced | decreased | pronounced decrease in survival | slightly reduced the high-salt (HS) diet-induced decrease in body weight | – | – | – | –
M-10591: control oligonucleotide targeting miR-67 from C. elegans; 5′-TCCTAGAAAGAGTAGA-3′ (SEQ ID NO:13) (LNA-modified control oligonucleotide, pattern not given here) [reference compound] | – | – | – | – | – | – | – | – | – | significantly increased | significant decrease | no effect | no apparent effect on weight gain
